This assay relates to P388 leukemia ip, CD2F1 mice, survival T/C. Put plainly: NCI In Vivo Anticancer Drug Screen. Data for tumor model P388 Leukemia (intraperitoneal) in CD2F1 (CDF1) mice. To be noted: endpoint: median survival time, higher = longer survival. The gist of the method:
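Mice carrying the transplanted tumor received test compound or vehicle. Survival was recorded in each group, and the value is the treated-group measurement divided by that of the vehicle-treated control group.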

Where [1] appears, read: dose: 60.0 mg/kg/injection, schedule: Q01DX005 (ip), vehicle: Klucel (hydroxypropylcellulose) (HPC).
The mark [2] stands for this setting: dose: 120.0 mg/kg/injection, schedule: Q01DX005 (ip), vehicle: Klucel (hydroxypropylcellulose) (HPC).
The mark [3] stands for this setting: dose: 100.0 mg/kg/injection, schedule: Q01DX001 (ip), vehicle: saline with Tween-80.
[4] abbreviates: dose: 6.25 mg/kg/injection, schedule: Q01DX005 (ip), vehicle: saline.
Where [5] appears, read: dose: 12.5 mg/kg/injection, schedule: Q01DX005 (ip), vehicle: saline.
Where [6] appears, read: dose: 50.0 mg/kg/injection, schedule: Q01DX009 (ip), vehicle: saline with Tween-80.
Where [7] appears, read: dose: 100.0 mg/kg/injection, schedule: Q01DX009 (ip), vehicle: saline with Tween-80.
Where [8] appears, read: dose: 200.0 mg/kg/injection, schedule: Q01DX009 (ip), vehicle: saline with Tween-80.
The mark [9] stands for this setting: dose: 50.0 mg/kg/injection, schedule: Q01DX009 (ip), vehicle: Klucel (hydroxypropylcellulose) (HPC).
Setting [10] is: dose: 100.0 mg/kg/injection, schedule: Q01DX009 (ip), vehicle: Klucel (hydroxypropylcellulose) (HPC).
Where [11] appears, read: dose: 200.0 mg/kg/injection, schedule: Q01DX009 (ip), vehicle: Klucel (hydroxypropylcellulose) (HPC).
The mark [12] stands for this setting: dose: 50.0 mg/kg/injection, schedule: Q01DX005 (ip), vehicle: Klucel (hydroxypropylcellulose) (HPC).
Where [13] appears, read: dose: 100.0 mg/kg/injection, schedule: Q01DX005 (ip), vehicle: Klucel (hydroxypropylcellulose) (HPC).
Where [14] appears, read: dose: 200.0 mg/kg/injection, schedule: Q01DX005 (ip), vehicle: Klucel (hydroxypropylcellulose) (HPC).
Setting [15] is: dose: 12.5 mg/kg/injection, schedule: Q01DX009 (ip), vehicle: saline with Tween-80.
[16] abbreviates: dose: 25.0 mg/kg/injection, schedule: Q01DX009 (ip), vehicle: saline with Tween-80.

Where “and” joins values, the source holds several entries; their conditions need not be identical. Identical values can stand only once. Inconclusive results and toxic doses are left out. Peptide text beside a SMILES is read from it.

As to `CCOc1c(N=Nc2ccc(OC)cc2)c(C)nn1C(=S)S`, the T/C runs as follows: under setting [1], 115 % of control; under setting [2], 112 % of control; (dose: 240.0 mg/kg/injection, schedule: Q01DX005 (ip), vehicle: Klucel (hydroxypropylcellulose) (HPC)) 100 % of control.
On to `C/C(=N\OCC(O)CNCCSCc1ccccc1)c1ccccc1Cl` (stereo not given), for which the T/C is, setting by setting: (dose: 30.0 mg/kg/injection, schedule: Q01DX005 (ip), vehicle: Klucel (hydroxypropylcellulose) (HPC)) 97 % of control; under setting [1], 91 % of control; under setting [2], 100 % of control and 91 % of control.
For the molecule `COc1ccc2c(c1OC(C)=O)-c1cc(OC(C)=O)cc3c1C(C2)N(C(=O)CN(CCCl)CCCl)CC3` (stereo not given), the T/C is 150 % of control (dose: 6.25 mg/kg/injection, schedule: Q04DX003 (ip), vehicle: other); 170 % of control (dose: 12.5 mg/kg/injection, schedule: Q04DX003 (ip), vehicle: other); 170 % of control (dose: 25.0 mg/kg/injection, schedule: Q04DX003 (ip), vehicle: DMSO); 185 % of control (dose: 25.0 mg/kg/injection, schedule: Q04DX003 (ip), vehicle: other); 94 % of control (dose: 50.0 mg/kg/injection, schedule: Q04DX003 (ip), vehicle: DMSO); 95 % of control (dose: 50.0 mg/kg/injection, schedule: Q04DX003 (ip), vehicle: other).
With `NNC(=O)c1cc2c3ccccc3ncc2c2ccccc12`, the T/C under setting [3] was 86 % of control; the T/C (dose: 200.0 mg/kg/injection, schedule: Q01DX001 (ip), vehicle: saline with Tween-80) was 95 % of control; the T/C (dose: 400.0 mg/kg/injection, schedule: Q01DX001 (ip), vehicle: saline with Tween-80) is 113 % of control.
For `CC(=O)NC1=CC(=Nc2ccc(N(C)C)cc2)C=CC1=O`, the T/C (dose: 3.12 mg/kg/injection, schedule: Q01DX005 (ip), vehicle: saline) was 114 % of control; the T/C under setting [4] is 112 % of control; the T/C under setting [5] is 102 % of control.
Consider `CC(=O)OCCC/C(=C/c1cc2ccccc2c2ccccc12)[N+](=O)[O-]`, for which the T/C runs as follows: (dose: 100.0 mg/kg/injection, schedule: Q04DX003 (ip), vehicle: Klucel (hydroxypropylcellulose) (HPC)) 104 % of control; (dose: 200.0 mg/kg/injection, schedule: Q04DX003 (ip), vehicle: Klucel (hydroxypropylcellulose) (HPC)) 109 % of control; (dose: 400.0 mg/kg/injection, schedule: Q04DX003 (ip), vehicle: Klucel (hydroxypropylcellulose) (HPC)) 109 % of control.
Regarding `O=C(O)CCc1nc(-c2ccccc2-n2cccc2)no1`, the T/C is, setting by setting: under setting [6], 96 % of control; under setting [7], 102 % of control.
As to `O=C(O)C1CC(O)CN1` (stereo not given), the T/C is, setting by setting: (dose: 50.0 mg/kg/injection, schedule: Q01DX005 (ip), vehicle: saline) 106 % of control; (dose: 100.0 mg/kg/injection, schedule: Q01DX005 (ip), vehicle: saline) 106 % of control; (dose: 200.0 mg/kg/injection, schedule: Q01DX005 (ip), vehicle: saline) 110 % of control.
For the molecule `CC(C)(C)N=C(CCN1CCOCC1)Nc1cccc(Cl)c1`, the T/C runs as follows: under setting [6], 100 % of control; under setting [7], 96 % of control; under setting [8], 97 % of control.
Take `COc1ccc2c(c1)sc1nc(Oc3ccccc3)nc(=O)n12`: the T/C under setting [9] is 105 % of control, the T/C under setting [10] is 108 % of control and the T/C under setting [11] is 100 % of control.
On to `[O-]/[N+](=C\c1ccccc1)c1ccccc1`, for which the T/C (dose: 100.0 mg/kg/injection, schedule: Q04DX003 (ip), vehicle: saline with Tween-80) is 104 % of control and the T/C (dose: 200.0 mg/kg/injection, schedule: Q04DX003 (ip), vehicle: saline with Tween-80) is 99 % of control.
`CC1=NN(C(=O)c2ccccc2)C(=O)C1N=Nc1ccc(S(N)(=O)=O)cc1` (stereo not given): the T/C reads like this: (dose: 50.0 mg/kg/injection, schedule: Q01DX001 (ip), vehicle: Klucel (hydroxypropylcellulose) (HPC)) 101 % of control; (dose: 100.0 mg/kg/injection, schedule: Q01DX001 (ip), vehicle: Klucel (hydroxypropylcellulose) (HPC)) 94 % of control; (dose: 200.0 mg/kg/injection, schedule: Q01DX001 (ip), vehicle: Klucel (hydroxypropylcellulose) (HPC)) 96 % of control; (dose: 400.0 mg/kg/injection, schedule: Q01DX001 (ip), vehicle: Klucel (hydroxypropylcellulose) (HPC)) 90 % of control.
Take `[NH-]CC[N-]CCO.[NH-]CC[N-]CCO.[NH-]CC[N-]CCO.[Ni]`: the T/C was 93 % of control under setting [4]; 98 % of control under setting [5]; 107 % of control (dose: 25.0 mg/kg/injection, schedule: Q01DX005 (ip), vehicle: saline).
For the molecule `CN(C)CC1(c2ccccc2)C(=O)N(C)C(=O)N(C2CCCCC2)C1=O` (stereo not given), the T/C was 100 % of control under setting [6], 105 % of control under setting [7] and 115 % of control under setting [8].
As for `O=c1oc2c(ccc3c(O)cccc32)c2c1CCCC2`, the T/C under setting [12] is 105 % of control, the T/C under setting [13] is 102 % of control and the T/C under setting [14] was 93 % of control.
With `CCCCCCCCCCCCCCCC(=O)N(CCCN)CCCN(CCCN)C(=O)CCCCCCCCCCCCCCC`, the T/C is 86 % of control under setting [15], 109 % of control under setting [16] and 100 % of control under setting [6].
Regarding `CCOC(=O)c1ccc(NC(=O)Oc2ccccc2C(=O)OC)cc1`, the T/C was 100 % of control (dose: 60.0 mg/kg/injection, schedule: Q01DX005 (ip), vehicle: saline with Tween-80); 100 % of control (dose: 120.0 mg/kg/injection, schedule: Q01DX005 (ip), vehicle: saline with Tween-80); 95 % of control (dose: 240.0 mg/kg/injection, schedule: Q01DX005 (ip), vehicle: saline with Tween-80).
Consider `CCCCCCCC/C=C\CCCCCCCCN1CCOCC1`, for which the T/C by setting is: (dose: 50.0 mg/kg/injection, schedule: Q01DX009 (ip), vehicle: saline) 97 % of control; (dose: 100.0 mg/kg/injection, schedule: Q01DX009 (ip), vehicle: saline) 106 % of control.
On to `CN(C=C(C#N)C#N)c1ccccc1`, for which the T/C was 103 % of control under setting [15], 99 % of control under setting [16] and 99 % of control under setting [6].
As to `O=C(O)CNC(=O)Cc1cccc2ccccc12`, the T/C reads like this: under setting [12], 102 % of control; under setting [13], 98 % of control; under setting [14], 95 % of control.
Turning to `COC(=O)CCC1=C(OC)C(=O)C(OC)=CC1=O`, the T/C is 112 % of control under setting [6] and 100 % of control under setting [7].
In the case of `O=C(O)c1cc(-c2ccccc2Cl)nc2cc3ccccc3cc12`, the T/C runs as follows: under setting [9], 111 % of control; under setting [10], 101 % of control; under setting [11], 101 % of control.
Regarding `O=C1Cn2c(cc(=O)c3ccccc32)O1`, the T/C reads like this: (dose: 25.0 mg/kg/injection, schedule: Q01DX001 (ip), vehicle: saline with Tween-80) 109 % of control; (dose: 50.0 mg/kg/injection, schedule: Q01DX001 (ip), vehicle: saline with Tween-80) 116 % of control; under setting [3], 116 % of control.
Take `COC(=O)C(Cc1ccccc1)NC(=O)C(CC(C)C)NC(=O)C(CC(C)C)NC(=O)C(N)CC(C)C` (stereo not given) (H-LLLF-OMe; configuration not given here): the T/C runs as follows: (dose: 50.0 mg/kg/injection, schedule: Q01DX005 (ip), vehicle: saline with Tween-80) 98 % of control; (dose: 100.0 mg/kg/injection, schedule: Q01DX005 (ip), vehicle: saline with Tween-80) 104 % of control.
Take `C=C1C(=O)O[C@H]2[C@H]1C[C@@H](O)[C@@]1(C)[C@@H](OC(=O)/C(C)=C/C)C[C@@H]3O[C@]3(C)[C@H]21`: the T/C was 105 % of control (dose: 9.0 mg/kg/injection, schedule: Q01DX005 (ip), vehicle: Klucel + Tween-80); 106 % of control (dose: 18.0 mg/kg/injection, schedule: Q01DX005 (ip), vehicle: Klucel + Tween-80); 105 % of control (dose: 36.0 mg/kg/injection, schedule: Q01DX005 (ip), vehicle: Klucel + Tween-80); 110 % of control (dose: 72.0 mg/kg/injection, schedule: Q01DX005 (ip), vehicle: Klucel + Tween-80).

These data come from PubChem BioAssay AID330 (DTP/NCI, 2004).
